Consider seven compounds from patent publication US5567624A, “Carbazine dyes and derivatives for pH measurement” (Utah Medical Products, Inc., priority 1995, dated 1996).

Format in all cases: physicochemical
The nature of data set [1]: pKa of the dyes in aqueous solution, derived from the absorbance spectra. The text has this:
The pKa values, i.e. the approximate pH values of an aqueous solution of the dye where the acid and base forms of the dye are present in equal concentrations, were derived from the absorbance spectra and are listed in the Table below. As mentioned above, indicator dyes are generally most sensitive to pH changes near their pKa s.

Data set [2] can be described thus: Fluorescence rating / quantum yield in aqueous solution. The note with it: for Fluorescence: relative scale of 1 to 10 where 10 is best, excitation at maximum absorbance wavelength, constant concentration and pH. From the text: The fluorescence ratings shown in the Table are based on the maximum fluorescence obtainable from an aqueous carbazine dye solution with excitation at the maximum absorbance wavelength for the particular dye, but with concentrations and pH constant between all dyes. […] Quantum yields of the acid forms of the dyes appears as high as the base forms. The carbazine dye of Example 4, sold commercially as "CARBAZINE 720" (Exciton, Inc., Dayton, Ohio), has a quantum yield of approximately 50% in aqueous solution containing base.

Data set [3] is described as follows: Absorbance and fluorescence emission spectra of acid and base forms of the dyes. The note with it: Table, footnote c. The method, then:
Certain properties of the carbazine dyes of Examples 1-7 were determined. Spectral data were obtained either with a Hewlett Packard Model 8452A Diode Array Spectrophotometer or a Perkin Elmer Model LS 50B Luminescence Spectrometer. All of the dyes are similar in their absorbance and emission spectra, with only slight differences in peak locations, ratios of absorbance of acid to absorbance of base, and pKa s. The unmodified dyes show large separation between absorbance peaks for acid and base forms. Typically, the acid form has a peak absorbance at about 480 nm, and the base form has a peak absorbance at about 660 nm. Fluorescence emission of the base form has a well-defined single peak at approximately 690 nm.

Turning to `CC1=CC(=O)C(C)=C(C)C12C1=CC(=O)C=CC1=Nc1ccc(O)cc12` (stereo not shown) [Example 3], in data set [1], the pKa is 6.5. Also, in data set [2], the Fluorescence stood at 10. The “Absorbance ratio of acid/base” value in data set [3] was 0.380.

In data set [1], `CC1=C(C)C2(C3=CC(=O)C=CC3=Nc3ccc(O)cc32)C(C)=C(C)C1=O` [Example 4, 7-hydroxy-2',3',5',6'-tetramethylspiro[acridine-9,1'-cyclohexa-2', 5'-diene]-2(9H), 4'-dione] came in with a pKa of 6.5. Also, in data set [2] (aqueous solution containing base), the quantum yield result is recorded as “approximately 50%”. The compound also yielded a Fluorescence in data set [2] of 10. In addition, the “Absorbance ratio of acid/base” value in data set [3] worked out at 0.388.

In data set [1], `O=C1C=CC2(C=C1)C1=CC(=O)C=CC1=Nc1ccc(O)cc12` [Example 1, 7-hydroxyspiro[acridine-9,1'-cyclohexa-2',5'-diene]-2(9H),4'-dione] gave a pKa of 6.5. In data set [2], this compound had a Fluorescence of 2. In data set [3], the “Absorbance ratio of acid/base” value was found to be 0.426.

`CC(C)(C)C1=CC2(C=CC1=O)C1=CC(=O)C=CC1=Nc1ccc(O)cc12` (stereo not shown) [Example 7] gave a pKa in data set [1] of 7.2. In data set [2], this compound had a Fluorescence of 6. In addition, the “Absorbance ratio of acid/base” value in data set [3] was found to be 0.324.

In turn, `O=C1C=CC2=Nc3ccc(O)cc3C3(C=CC(=O)C4=C3CCCC4)C2=C1` (stereo not shown) [Example 5] displayed a pKa in data set [1] of 6.7. Further, the Fluorescence in data set [2] amounted to 8. Besides, the “Absorbance ratio of acid/base” value in data set [3] is given as 0.387.

`CC1=CC(=O)C=C(C(C)C)C12C1=CC(=O)C=CC1=Nc1ccc(O)cc12` (stereo not shown) [Example 6]: the pKa in data set [1] was 6.4. In data set [2], this compound gave a Fluorescence of 7. The “Absorbance ratio of acid/base” value in data set [3] turned out to be 0.377.

As for `CC1=CC(=O)C=C(C)C12C1=CC(=O)C=CC1=Nc1ccc(O)cc12` [Example 2], the pKa in data set [1] is listed as 6.5. Moreover, in data set [2], the Fluorescence came out at 7. The “Absorbance ratio of acid/base” value in data set [3] is given as 0.391.
